Assay results published in the NIST ThermoML archive (doi:10.1021/acs.jced.7b01125).

Assay: xn = mol fraction of the nth substance listed
Conditions: Gas, Buoyancy - hydrostatic balance with magnetic suspension - one sinker

[HH] [hydrogen] + C
Conditions	mass density [kg/m3]
250.05 K, 1999 kPa, x2 = 0.9	14.843
250.05 K, 8002 kPa, x2 = 0.9499	76.259
250.05 K, 10007 kPa, x2 = 0.9499	101.135
250.05 K, 11012 kPa, x2 = 0.9499	113.948
250.05 K, 12006 kPa, x2 = 0.9	113.812
250.05 K, 12009 kPa, x2 = 0.9499	126.528
250.05 K, 13012 kPa, x2 = 0.9	124.698
250.05 K, 13015 kPa, x2 = 0.9499	138.84
250.05 K, 14014 kPa, x2 = 0.9	135.178
250.05 K, 14017 kPa, x2 = 0.9499	150.503
250.05 K, 15015 kPa, x2 = 0.9	145.138
250.05 K, 15015 kPa, x2 = 0.9499	161.379
250.05 K, 16007 kPa, x2 = 0.9499	171.395
250.05 K, 16018 kPa, x2 = 0.9	154.622
250.05 K, 17011 kPa, x2 = 0.9	163.416
250.05 K, 17022 kPa, x2 = 0.9499	180.83
250.05 K, 18018 kPa, x2 = 0.9	171.725
250.05 K, 18020 kPa, x2 = 0.9499	189.342
250.05 K, 18962 kPa, x2 = 0.9499	196.737
250.05 K, 19023 kPa, x2 = 0.9	179.463
250.05 K, 19940 kPa, x2 = 0.9	186.044
260.03 K, 1002 kPa, x2 = 0.4997	4.206
260.03 K, 1977 kPa, x2 = 0.4997	8.33
260.03 K, 3002 kPa, x2 = 0.4997	12.694
260.03 K, 4002 kPa, x2 = 0.4997	16.974
260.03 K, 5000 kPa, x2 = 0.4997	21.26
260.03 K, 6003 kPa, x2 = 0.4997	25.579
260.03 K, 7000 kPa, x2 = 0.4997	29.878
260.03 K, 8000 kPa, x2 = 0.4997	34.185
260.03 K, 9003 kPa, x2 = 0.4997	38.489
260.03 K, 10005 kPa, x2 = 0.4997	42.775
260.03 K, 11002 kPa, x2 = 0.4997	47.008
260.03 K, 12008 kPa, x2 = 0.4997	51.246
260.03 K, 13002 kPa, x2 = 0.4997	55.387
260.03 K, 14009 kPa, x2 = 0.4997	59.544
260.03 K, 15005 kPa, x2 = 0.4997	63.583
260.03 K, 16009 kPa, x2 = 0.4997	67.621
260.03 K, 17009 kPa, x2 = 0.4997	71.57
260.03 K, 18006 kPa, x2 = 0.4997	75.418
260.03 K, 19113 kPa, x2 = 0.4997	79.651
260.04 K, 999 kPa, x2 = 0.9499	7.267
260.04 K, 1000 kPa, x2 = 0.9	6.927
260.04 K, 1999 kPa, x2 = 0.9499	14.926
260.04 K, 2000 kPa, x2 = 0.9	14.169
260.04 K, 2999 kPa, x2 = 0.9499	23.006
260.04 K, 3001 kPa, x2 = 0.9	21.762
260.04 K, 3999 kPa, x2 = 0.9499	31.515
260.04 K, 5000 kPa, x2 = 0.9499	40.497
260.04 K, 5999 kPa, x2 = 0.9499	49.941
260.04 K, 6001 kPa, x2 = 0.9	46.626
260.04 K, 7001 kPa, x2 = 0.9	55.622
260.04 K, 7002 kPa, x2 = 0.9499	59.886
260.04 K, 8003 kPa, x2 = 0.9	64.951
260.04 K, 8003 kPa, x2 = 0.9499	70.258
260.04 K, 9004 kPa, x2 = 0.9	74.538
260.04 K, 9006 kPa, x2 = 0.9499	81.038
260.04 K, 10006 kPa, x2 = 0.9	84.334
260.04 K, 10006 kPa, x2 = 0.9499	92.073
260.04 K, 11008 kPa, x2 = 0.9	94.232
260.04 K, 11011 kPa, x2 = 0.9499	103.316
260.04 K, 12013 kPa, x2 = 0.9499	114.514
260.04 K, 13017 kPa, x2 = 0.9499	125.55
260.04 K, 14016 kPa, x2 = 0.9499	136.214
260.04 K, 15018 kPa, x2 = 0.9499	146.448
260.04 K, 16023 kPa, x2 = 0.9499	156.169
260.04 K, 17019 kPa, x2 = 0.9499	165.22
260.04 K, 18026 kPa, x2 = 0.9499	173.779
260.04 K, 18756 kPa, x2 = 0.9499	179.616
260.05 K, 4000 kPa, x2 = 0.9	29.682
260.05 K, 5000 kPa, x2 = 0.9	37.974
260.05 K, 12009 kPa, x2 = 0.9	104.112
260.05 K, 13009 kPa, x2 = 0.9	113.883
260.05 K, 14013 kPa, x2 = 0.9	123.483
260.05 K, 15017 kPa, x2 = 0.9	132.774
260.05 K, 16016 kPa, x2 = 0.9	141.654
260.05 K, 17013 kPa, x2 = 0.9	150.096
260.05 K, 17614 kPa, x2 = 0.9	154.98
275 K, 1001 kPa, x2 = 0.4997	3.964
275 K, 2001 kPa, x2 = 0.4997	7.947
275 K, 3002 kPa, x2 = 0.4997	11.95
275 K, 4001 kPa, x2 = 0.4997	15.957
275 K, 5001 kPa, x2 = 0.4997	19.969
275 K, 6001 kPa, x2 = 0.4997	23.987
275 K, 7001 kPa, x2 = 0.4997	27.997
275 K, 8001 kPa, x2 = 0.4997	31.996
275 K, 9003 kPa, x2 = 0.4997	35.989
275 K, 10000 kPa, x2 = 0.4997	39.943
275 K, 12001 kPa, x2 = 0.4997	47.79
275 K, 13004 kPa, x2 = 0.4997	51.668
275.01 K, 999 kPa, x2 = 0.9499	6.842
275.01 K, 1000 kPa, x2 = 0.9	6.522
275.01 K, 1999 kPa, x2 = 0.9499	13.98
275.01 K, 2001 kPa, x2 = 0.9	13.293
275.01 K, 2997 kPa, x2 = 0.9499	21.412
275.01 K, 3001 kPa, x2 = 0.9	20.304
275.01 K, 4001 kPa, x2 = 0.9	27.568
275.01 K, 4002 kPa, x2 = 0.9499	29.206
275.01 K, 5002 kPa, x2 = 0.9499	37.281
